Measured values reported in patent US7892756B2, “Human salty taste receptor and methods of modulating salty taste perception” (Monell Chemical Senses Center, priority 2006, dated 2011).
Entries after “also recorded” stand apart in the source; their conditions may differ. Read-outs that look alike come from different tables or passages of the source.

What was measured:
[1] = test system: salty taste response in humans; details: in vivo, cited from earlier work
[2] = test system: catfish putative taste receptor for L-arginine; experiment: Single channel recording of purified receptor reconstituted in planar lipid bilayers (FIG. 9); format: biochemical; details: transmembrane potential −100 mV
Excerpt: Proteoliposomes containing purified receptor protein from catfish taste epithelium are fused to planar lipid bilayers. Control records (trace shown in part A) were obtained after addition of proteolipisomes to the membrane bathing solution before addition of L-Arg. […] Transmembrane potential was −100 mV. Traces shown in all panels are continuous records of that specific condition.
This example, in part, describes the extraction, purification, and membrane-reconstitution of a taste receptor for L-arginine (L-arg) from catfish. The methods, which are published and described in Grosvenor, W et al. (2004) BMC Neuroscience 5:25, can be readily adapted for reconstitution of ENaC, ENaC subunits, and salty taste receptors in lipid membranes as described below. The catfish has served as a model for taste receptor studies because the receptors are very sensitive to certain amino acids. One such amino acid is L-arg. Like the ENaC, the taste receptor for L-arg in catfish is an ion channel. Parallel approaches are utilized in solubilizing the L-arg and ENaC-type receptors. The receptors differ primarily by origin—the L-arg receptor is purified from catfish taste tissue and the ENaC subunits are synthesized by a heterologous cell culture expression system. […]

[3] = test system: L-ArgR (native taste receptor for L-arginine); experiment: Taste nerve recordings from the animal, L-ArgR in its native state; format: in vivo, catfish
Excerpt: The properties of the L-ArgR as measured in the bilayer are very similar to those observed through taste nerve recordings from the animal, when the L-ArgR is in its native state.

[4] = target: T1, ENaC composed of human delta, beta, gamma (Homo sapiens, UniProt P51172, C696Y); experiment: Amiloride inhibition of ENaC of different composition (FIG. 4); format: biochemical; details: gamma ENaC compared with human alpha
T1 sequence (P51172 1-638 isoform P51172-1 C532Y): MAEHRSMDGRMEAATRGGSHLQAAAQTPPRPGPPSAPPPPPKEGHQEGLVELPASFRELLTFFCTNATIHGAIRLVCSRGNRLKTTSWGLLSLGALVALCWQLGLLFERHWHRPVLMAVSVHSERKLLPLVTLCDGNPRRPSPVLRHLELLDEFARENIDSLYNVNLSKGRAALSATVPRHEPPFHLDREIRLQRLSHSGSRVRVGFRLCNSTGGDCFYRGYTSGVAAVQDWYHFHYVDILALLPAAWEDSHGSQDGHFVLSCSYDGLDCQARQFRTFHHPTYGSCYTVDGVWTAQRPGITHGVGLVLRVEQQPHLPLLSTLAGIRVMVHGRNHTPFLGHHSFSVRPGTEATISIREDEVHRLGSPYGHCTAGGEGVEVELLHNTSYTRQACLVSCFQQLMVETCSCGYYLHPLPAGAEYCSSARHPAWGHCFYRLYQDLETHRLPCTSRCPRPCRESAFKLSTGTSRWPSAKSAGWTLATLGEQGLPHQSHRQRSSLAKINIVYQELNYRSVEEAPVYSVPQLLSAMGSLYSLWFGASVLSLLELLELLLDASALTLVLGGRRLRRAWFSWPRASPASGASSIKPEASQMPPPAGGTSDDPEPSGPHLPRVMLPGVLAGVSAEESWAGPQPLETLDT
T1 sequence (P51168 1-640 partner): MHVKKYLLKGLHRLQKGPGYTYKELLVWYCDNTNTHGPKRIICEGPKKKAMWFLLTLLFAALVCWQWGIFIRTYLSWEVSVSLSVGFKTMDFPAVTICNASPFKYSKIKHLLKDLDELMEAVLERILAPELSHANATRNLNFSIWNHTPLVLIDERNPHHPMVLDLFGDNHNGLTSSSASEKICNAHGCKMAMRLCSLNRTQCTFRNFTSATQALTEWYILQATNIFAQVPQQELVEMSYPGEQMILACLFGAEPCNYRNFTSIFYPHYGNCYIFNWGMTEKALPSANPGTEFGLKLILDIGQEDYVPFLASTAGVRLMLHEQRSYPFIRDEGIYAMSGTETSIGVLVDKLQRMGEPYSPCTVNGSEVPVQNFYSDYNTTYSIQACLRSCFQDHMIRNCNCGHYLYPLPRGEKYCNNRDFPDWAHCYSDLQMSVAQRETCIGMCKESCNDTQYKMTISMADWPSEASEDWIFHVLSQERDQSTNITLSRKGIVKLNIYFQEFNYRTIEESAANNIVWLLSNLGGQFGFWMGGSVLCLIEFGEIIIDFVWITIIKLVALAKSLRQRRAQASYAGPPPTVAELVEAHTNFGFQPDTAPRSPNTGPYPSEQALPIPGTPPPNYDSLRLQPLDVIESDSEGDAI
T1 sequence (P51170 1-649 partner): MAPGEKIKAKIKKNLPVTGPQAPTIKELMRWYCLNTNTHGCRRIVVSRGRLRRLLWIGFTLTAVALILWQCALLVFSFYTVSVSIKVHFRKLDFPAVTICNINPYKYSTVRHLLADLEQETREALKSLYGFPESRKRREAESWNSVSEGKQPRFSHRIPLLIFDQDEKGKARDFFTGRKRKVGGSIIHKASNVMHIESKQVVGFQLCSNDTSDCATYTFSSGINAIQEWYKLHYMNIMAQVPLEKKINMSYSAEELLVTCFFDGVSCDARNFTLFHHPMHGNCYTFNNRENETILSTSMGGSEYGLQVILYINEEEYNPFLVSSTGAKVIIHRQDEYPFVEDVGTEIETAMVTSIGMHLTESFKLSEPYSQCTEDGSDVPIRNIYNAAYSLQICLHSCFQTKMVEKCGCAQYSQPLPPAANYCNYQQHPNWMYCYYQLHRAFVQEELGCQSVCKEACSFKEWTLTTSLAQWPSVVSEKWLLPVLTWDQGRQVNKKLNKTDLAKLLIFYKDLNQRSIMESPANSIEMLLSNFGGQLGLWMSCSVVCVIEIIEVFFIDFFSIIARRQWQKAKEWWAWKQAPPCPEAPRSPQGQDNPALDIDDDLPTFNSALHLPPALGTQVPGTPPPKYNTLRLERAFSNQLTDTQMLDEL

ENaC delta (δ) subunit = target: T2, ENaC delta (δ) subunit (Homo sapiens, UniProt P51172); details: delta versus alpha subunit; cited from earlier work
T2 sequence (P51172 1-802): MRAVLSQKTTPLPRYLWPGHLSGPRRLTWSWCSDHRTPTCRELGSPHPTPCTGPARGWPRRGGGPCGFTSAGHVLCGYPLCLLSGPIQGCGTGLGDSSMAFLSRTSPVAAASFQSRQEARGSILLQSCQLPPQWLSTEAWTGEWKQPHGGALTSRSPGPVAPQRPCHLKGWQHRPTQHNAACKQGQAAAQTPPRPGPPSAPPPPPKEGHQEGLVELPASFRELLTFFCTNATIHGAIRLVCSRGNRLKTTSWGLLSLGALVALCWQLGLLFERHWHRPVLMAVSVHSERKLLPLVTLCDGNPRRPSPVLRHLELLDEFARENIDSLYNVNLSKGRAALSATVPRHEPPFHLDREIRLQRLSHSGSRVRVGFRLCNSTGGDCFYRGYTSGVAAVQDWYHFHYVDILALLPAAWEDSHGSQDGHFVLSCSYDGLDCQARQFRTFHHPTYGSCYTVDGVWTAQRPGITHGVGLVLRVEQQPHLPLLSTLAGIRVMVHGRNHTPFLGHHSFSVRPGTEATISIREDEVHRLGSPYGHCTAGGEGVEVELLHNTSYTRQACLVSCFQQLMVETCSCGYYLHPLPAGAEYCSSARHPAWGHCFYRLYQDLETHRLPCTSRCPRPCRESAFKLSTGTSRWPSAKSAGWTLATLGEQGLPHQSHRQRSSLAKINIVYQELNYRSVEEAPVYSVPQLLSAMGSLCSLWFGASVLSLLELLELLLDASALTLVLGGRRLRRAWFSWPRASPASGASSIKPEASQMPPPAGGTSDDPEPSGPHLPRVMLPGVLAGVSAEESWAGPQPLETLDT
T2 sequence (P51168 1-640 partner): T1 sequence (P51168 1-640 partner)
T2 sequence (P51170 1-649 partner): T1 sequence (P51170 1-649 partner)

## N=C(N)NCCC[C@@H](N)C(=O)O [D-Arg, D-arginine]
[1]
  effect on salty taste response in humans: equally effective
[2]; 100 μM, cis-side, after 10 μM L-Arg
  single channel activity after addition to the cis-side following L-Arg: activity ceased
[3]
  effect on the native receptor: inhibits the receptor

## N=C(N)NC(=O)c1nc(Cl)c(N)nc1N [amiloride]
[4]
  amiloride sensitivity of delta-containing ENaC relative to alpha, beta, gamma ENaC: less so than the alpha; also recorded: less sensitive to amiloride
[1]
  effect on salty taste response in humans: inability of amiloride to inhibit sodium-induced salty taste response in humans; also recorded: not sensitive to amiloride
ENaC delta (δ) subunit
  lower affinity for amiloride of delta subunit relative to alpha subunit: 30 fold

## [Cl-].[Na+] [NaCl, sodium chloride]
[1]
  concentration at which a salty taste is imparted: above 50 mM

## N=C(N)N [guanidine]
[1]
  effect on salty taste response in humans: salty taste enhancers

## N=C(N)NCCC[C@H](N)C(=O)O [arginine]
[1]
  effect on salty taste response in humans: salty taste enhancers

## [H]/N=C(\N/C(=N/[H])NCCCCCCNC(=N)NC(=N)Nc1ccc(Cl)cc1)Nc1ccc(Cl)cc1 [chlorhexidine]
[1]
  effect on salty taste response in humans: inhibitor of the salty taste response in humans

## N=C(N)NCCCC[C@H](N)C(=O)O [homoarginine]
[1]
  effect on salty taste response in humans: salty taste enhancers

## N=C(N)NCCC[C@H](N)C(=O)O [L-Arg, L-arginine]
[1]; listed as L-arginine
  effect on salty taste response in humans: equally effective
[2]; 10 μM, cis-side of bilayer
  single channel activity after addition to the cis-side: evoked regular periodic channel activity
[3]
  sensitivity of the native receptor: in the tenths of uM
